Each compound was assayed against T1, COX-2 (Homo sapiens, UniProt P35354) (assay: COX-2 inhibitor screening kit, in vitro enzyme activity test (fluorescence)). Settings: inhibition of COX-2 enzyme activity, probit regression.
T1 construct: purchased Beyotime Biotechnology (Shanghai, China)
T1 sequence (P35354 18-604): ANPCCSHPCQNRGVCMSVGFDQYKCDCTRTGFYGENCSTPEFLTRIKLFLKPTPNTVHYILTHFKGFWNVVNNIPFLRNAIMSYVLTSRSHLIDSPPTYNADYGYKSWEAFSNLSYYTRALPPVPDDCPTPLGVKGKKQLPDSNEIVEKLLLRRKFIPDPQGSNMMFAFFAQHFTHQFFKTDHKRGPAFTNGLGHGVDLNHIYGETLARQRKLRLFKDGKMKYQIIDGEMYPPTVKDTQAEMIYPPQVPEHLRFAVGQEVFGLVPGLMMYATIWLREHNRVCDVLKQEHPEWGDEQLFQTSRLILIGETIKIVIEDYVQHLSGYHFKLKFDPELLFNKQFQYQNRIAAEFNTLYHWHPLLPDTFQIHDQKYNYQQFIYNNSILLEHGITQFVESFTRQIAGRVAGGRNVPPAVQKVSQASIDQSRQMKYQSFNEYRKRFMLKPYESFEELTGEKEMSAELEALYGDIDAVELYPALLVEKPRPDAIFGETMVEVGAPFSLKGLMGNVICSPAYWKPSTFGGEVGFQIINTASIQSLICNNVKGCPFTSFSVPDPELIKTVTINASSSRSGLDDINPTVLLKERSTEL
Type: biochemical
Experimental: The COX-2 inhibitory activities of four monomer compounds and Shiyifang Vinum were detected with the COX-2 inhibitor screening kit. The blank control, 100% enzyme activity control, positive inhibition control, and sample wells were prepared, with three repeat wells in each group.

Compared with `O=c1c(O)c(-c2ccc(O)cc2)oc2cc(O)cc(O)c12` [Kaempferol, kaempferol], `O=c1c(O)c(-c2ccc(O)c(O)c2)oc2cc(O)cc(O)c12` [Quercetin, quercetin] is 7.8-fold lower in IC50: 30.7 µM for the first, 3.96 µM for the second. The second is the more potent here.

Work on `O=c1cc(-c2ccc(O)c(O)c2)oc2cc(O)cc(O)c12` [Luteolin, luteolin] yielded an IC50 of 10.8 µM.
